Patent US20180273538A1, “PYRROLO[2,3-d]PYRIMIDINE DERIVATIVES, A PROCESS FOR THEIR PREPARATION AND PHARMACEUTICAL COMPOSITIONS CONTAINING THEM” (LES LABORATOIRES SERVIER, priority 2015, published 2018)

Assays:
[1] = target: T1, phospho-Ser520-DYRK1A (Homo sapiens, UniProt Q13627); test: Cellular DYRK1A autophosphorylation assay in U2-OS cells; assay type: cell-based; conditions: 5 hours exposure, read-out: IC50 (μM) P-Ser520-Dyrk1A-Cell assay
T1 construct: full-length, wild-type human DYRK1A (NM_001396) with an HA tag; expressed in transfected cells; host or cells: human U2-OS osteosarcoma cells, pcDNA3.1 plasmid

[2] = target: T2, His-TEV-DYRK1A Kinase domain (aa127-485) (Homo sapiens, UniProt Q13627); test: Kinase ADP assay (ADP Hunter Plus); assay type: biochemical
T2 construct: His-TEV-DYRK1A Kinase domain (aa127-485); His (N); TEV cleavage site (N)

| IC50 [1] | IC50 [2] | Compound |
| --- | --- | --- |
| 0.0097 µM | 0.006 µM | COc1cc(F)ccc1CNc1nc(C)nc2[nH]cc(-c3ccnc(N)c3)c12 [Example 84, 5-(2-aminopyridin-4-yl)-N-(4-fluoro-2-methoxybenzyl)-2-methyl-7H-pyrrolo[2,3-d]pyrimidin-4-amine] |
| 0.0169 µM | 0.011 µM | Cc1nc(NCc2cccc3c2OCO3)c2c(-c3ccnc(N)c3)c[nH]c2n1 [Example 127, 5-(2-aminopyridin-4-yl)-N-(1,3-benzodioxol-4-ylmethyl)-2-methyl-7H-pyrrolo[2,3-d]pyrimidin-4-amine] |
| 0.0093 µM | 0.009 µM | Cc1nc(NCc2cccc3c2OCO3)c2c(-c3cc(N)nc(N)c3)c[nH]c2n1 [Example 128, 4-{4-[(1,3-benzodioxol-4-ylmethyl)amino]-2-methyl-7H-pyrrolo[2,3-d]pyrimidin-5-yl}pyridine-2,6-diamine] |
| – | 1.06 µM | Cc1nc(N2CCOC(C)C2)c2c(-c3cc(N)nc(N)c3)c[nH]c2n1 (stereo not shown) [Example 143, 4-[2-methyl-4-(2-methylmorpholin-4-yl)-7H-pyrrolo[2,3-d]pyrimidin-5-yl]pyridine-2,6-diamine] |
| – | 0.545 µM | COC1CCCN(c2nc(C)nc3[nH]cc(-c4cc(N)nc(N)c4)c23)C1 (stereo not shown) [Example 144, 4-[4-(3-methoxypiperidin-1-yl)-2-methyl-7H-pyrrolo[2,3-d]pyrimidin-5-yl]pyridine-2,6-diamine] |
| 0.471 µM | 0.042 µM | COc1cccc(C(F)(F)F)c1CNc1nc(C)nc2[nH]cc(-c3ccncc3)c12 [Example 145, N-[2-methoxy-6-(trifluoromethyl)benzyl]-2-methyl-5-(pyridin-4-yl)-7H-pyrrolo[2,3-d]pyrimidin-4-amine] |
| – | 0.172 µM | COc1cccc(C(F)(F)F)c1CNc1nc(C)nc2[nH]cc(-c3ccnc(C)c3)c12 [Example 146, N-[2-methoxy-6-(trifluoromethyl)benzyl]-2-methyl-5-(2-methylpyridin-4-yl)-7H-pyrrolo[2,3-d]pyrimidin-4-amine] |
| – | 0.17 µM | Nc1cc(-c2c[nH]c3nc(C4CC4)nc(NCc4c(F)cccc4F)c23)ccn1 [Example 147, 5-(2-aminopyridin-4-yl)-2-cyclopropyl-N-(2,6-difluorobenzyl)-7H-pyrrolo[2,3-d]pyrimidin-4-amine] |
| – | 0.734 µM | C=C(C)c1nc(NCc2c(F)cccc2F)c2c(-c3ccnc(N)c3)c[nH]c2n1 [Example 149, 5-(2-aminopyridin-4-yl)-N-(2,6-difluorobenzyl)-2-(prop-1-en-2-yl)-7H-pyrrolo[2,3-d]pyrimidin-4-amine] |
| – | 0.028 µM | C=Cc1nc(NCc2c(F)cccc2F)c2c(-c3ccnc(N)c3)c[nH]c2n1 [Example 151, 5-(2-aminopyridin-4-yl)-N-(2,6-difluorobenzyl)-2-ethenyl-7H-pyrrolo[2,3-d]pyrimidin-4-amine] |
| 0.0101 µM | 0.012 µM | Nc1cc(-c2c[nH]c3nc(C#CC4CC4)nc(NCc4c(F)cccc4F)c23)ccn1 [Example 152, 5-(2-aminopyridin-4-yl)-2-(cyclopropylethynyl)-N-(2,6-difluorobenzyl)-7H-pyrrolo[2,3-d]pyrimidin-4-amine] |
| 0.0146 µM | 0.011 µM | Nc1cc(-c2c[nH]c3nc(C#CC4CC4)nc(-c4ccc5c(c4)OCO5)c23)ccn1 [Example 153, 4-[4-(1,3-benzodioxol-5-yl)-2-(cyclopropylethynyl)-7H-pyrrolo[2,3-d]pyrimidin-5-yl]pyridin-2-amine] |
| – | 0.024 µM | C#Cc1nc(-c2ccc3c(c2)OCO3)c2c(-c3cc(N)nc(N)c3)c[nH]c2n1 [Example 155, 4-[4-(1,3-benzodioxol-5-yl)-2-ethynyl-7H-pyrrolo[2,3-d]pyrimidin-5-yl]pyridine-2,6-diamine] |
| – | 0.029 µM | C#Cc1nc(-c2ccc3c(c2)OCO3)c2c(-c3ccnc(N)c3)c[nH]c2n1 [Example 156, 4-[4-(1,3-benzodioxol-5-yl)-2-ethynyl-7H-pyrrolo[2,3-d]pyrimidin-5-yl]pyridin-2-amine] |
| – | 0.26 µM | N#Cc1nc(NCc2c(F)cccc2F)c2c(-c3ccnc(N)c3)c[nH]c2n1 [Example 157, 5-(2-aminopyridin-4-yl)-4-[(2,6-difluorobenzyl)amino]-7H-pyrrolo[2,3-d]pyrimidine-2-carbonitrile] |
| – | 0.184 µM | Cc1nc(CCc2ccccc2)c2c(-c3ccnc(N)c3)c[nH]c2n1 [Example 160] |
| – | 0.014 µM | COc1cc(F)cc(-c2nc(C)nc3[nH]cc(-c4ccnc(N)c4)c23)c1 [Example 162, 4-[4-(3-fluoro-5-methoxyphenyl)-2-methyl-7H-pyrrolo[2,3-d]pyrimidin-5-yl]pyridin-2-amine] |
| – | 0.301 µM | Cc1nc(-c2ccc(CN3CCCC3)cc2)c2c(-c3ccnc(N)c3)c[nH]c2n1 [Example 165] |
| – | 0.01 µM | Cc1nc(-c2cccc(C(F)(F)F)c2)c2c(-c3ccnc(N)c3)c[nH]c2n1 [Example 168, 4-{2-methyl-4-[3-(trifluoromethyl)phenyl]-7H-pyrrolo[2,3-d]pyrimidin-5-yl}pyridin-2-amine] |
| – | 0.216 µM | Cc1nc(-c2ccc(CN3CCN(C)CC3)cc2)c2c(-c3ccnc(N)c3)c[nH]c2n1 [Example 169, 4-(2-methyl-4-{4-[(4-methylpiperazin-1-yl)methyl]phenyl}-7H-pyrrolo[2,3-d]pyrimidin-5-yl)pyridin-2-amine] |
| – | 1.82 µM | Cc1nc(-c2cncc(F)c2)c2c(-c3ccnc(N)c3)c[nH]c2n1 [Example 170] |
| – | 0.033 µM | Cc1nc(-c2cccc(N3CCCC3)c2)c2c(-c3ccnc(N)c3)c[nH]c2n1 [Example 171] |
| – | 0.037 µM | CCOc1ccc(-c2nc(C)nc3[nH]cc(-c4ccnc(N)c4)c23)cc1 [Example 172] |

| IC50 [1] | IC50 [2] | Compound |
| --- | --- | --- |
| – | 0.07 µM | Cc1nc(-c2cccc(OCCCN3CCOCC3)c2)c2c(-c3ccnc(N)c3)c[nH]c2n1 [Example 174, 4-(2-methyl-4-{3-[3-(morpholin-4-yl)propoxy]phenyl}-7H-pyrrolo[2,3-d]pyrimidin-5-yl)pyridin-2-amine] |
| – | 0.146 µM | Cc1nc(-c2ccc(C#N)c(F)c2)c2c(-c3ccnc(N)c3)c[nH]c2n1 [Example 175] |
| – | 0.196 µM | Cc1nc(CN2CCC(F)(F)C2)c2c(-c3ccnc(N)c3)c[nH]c2n1 [Example 176] |
| – | 0.532 µM | Cc1nc(CN2CCCC(F)(F)C2)c2c(-c3ccnc(N)c3)c[nH]c2n1 [Example 177] |
| – | 0.079 µM | Cc1nc(-c2cc(F)cc(F)c2)c2c(-c3ccnc(N)c3)c[nH]c2n1 [Example 180] |
| – | 0.07 µM | Cc1nc(C2CCc3ccccc3C2)c2c(-c3ccnc(N)c3)c[nH]c2n1 (stereo not shown) [Example 188] |
| – | 0.062 µM | Cc1nc([C@H]2CCc3ccccc3C2)c2c(-c3ccnc(N)c3)c[nH]c2n1 [Example 189] |
| – | 0.419 µM | Cc1nc([C@@H]2CCc3ccccc3C2)c2c(-c3ccnc(N)c3)c[nH]c2n1 [Example 190] |
| – | 0.116 µM | Cc1nc(COc2ccccc2C(F)(F)F)c2c(-c3ccnc(N)c3)c[nH]c2n1 [Example 193, 4-(2-methyl-4-{[2-(trifluoromethyl)phenoxy]methyl}-7H-pyrrolo[2,3-d]pyrimidin-5-yl)pyridin-2-amine] |
| – | 0.009 µM | COc1ccccc1C#Cc1nc(C)nc2[nH]cc(-c3ccnc(N)c3)c12 [Example 197] |
| – | 0.148 µM | Cc1nc(-c2cccc(OCCCN3CCCCC3)c2)c2c(-c3ccnc(N)c3)c[nH]c2n1 [Example 199] |
| – | 0.027 µM | Cc1nc(-c2cccc(OCCCN3CCN(C)CC3)c2)c2c(-c3ccnc(N)c3)c[nH]c2n1 [Example 200] |
| – | 0.012 µM | Cc1nc(-c2cccc(OCCCl)c2)c2c(-c3ccnc(N)c3)c[nH]c2n1 [Example 201] |
| – | 0.144 µM | Cc1nc(-c2cccc(OCCN3CCCC3)c2)c2c(-c3ccnc(N)c3)c[nH]c2n1 [Example 202] |
| – | 0.155 µM | Cc1nc(-c2cccc(OCCN(C)C)c2)c2c(-c3ccnc(N)c3)c[nH]c2n1 [Example 203] |
| – | 0.089 µM | Cc1nc(-c2cccc(OCCN3CCOCC3)c2)c2c(-c3ccnc(N)c3)c[nH]c2n1 [Example 204] |
| – | 0.055 µM | Cc1cc(-c2c[nH]c3nc(C)nc(NCc4c(F)cccc4F)c23)nc(N)n1 [Example 205, 5-(2-amino-6-methylpyrimidin-4-yl)-N-(2,6-difluorobenzyl)-2-methyl-7H-pyrrolo[2,3-d]pyrimidin-4-amine] |
| – | 0.05 µM | Cc1nc(-c2ccc3c(c2)OC(F)(F)O3)c2c(-c3ccnc(N)n3)c[nH]c2n1 [Example 210, 4-[4-(2,2-difluoro-1,3-benzodioxol-5-yl)-2-methyl-7H-pyrrolo[2,3-d]pyrimidin-5-yl]pyrimidin-2-amine] |
| – | 0.027 µM | C#Cc1nc(N2CCc3ccccc3C2)c2c(-c3ccnc(N)n3)c[nH]c2n1 [Example 211, 4-[4-(3,4-dihydroisoquinolin-2(1H)-yl)-2-ethynyl-7H-pyrrolo[2,3-d]pyrimidin-5-yl]pyrimidin-2-amine] |
| – | 0.009 µM | Cc1nc(NCc2c(F)cccc2F)c2c(-c3cc(N)ncn3)c[nH]c2n1 [Example 212, 5-(6-aminopyrimidin-4-yl)-N-(2,6-difluorobenzyl)-2-methyl-7H-pyrrolo[2,3-d]pyrimidin-4-amine] |
| – | 0.242 µM | Cc1cc(-c2cncc(F)c2)c2c(-c3ccnc(N)c3)c[nH]c2n1 [Example 214, 4-[4-(5-fluoropyridin-3-yl)-6-methyl-1H-pyrrolo[2,3-b]pyridin-3-yl]pyridin-2-amine] |
| – | 0.043 µM | N#Cc1cc(-c2ccc3c(c2)OCO3)c2c(-c3ccnc(N)c3)c[nH]c2n1 [Example 223, 3-(2-aminopyridin-4-yl)-4-(1,3-benzodioxol-5-yl)-1H-pyrrolo[2,3-b]pyridine-6-carbonitrile] |
| – | 0.037 µM | Cc1cc(-c2ccc3c(c2)N(C)CCO3)c2c(-c3ccnc(N)c3)c[nH]c2n1 [Example 225, 4-[6-methyl-4-(4-methyl-3,4-dihydro-2H-1,4-benzoxazin-6-yl)-1H-pyrrolo[2,3-b]pyridin-3-yl]pyridin-2-amine] |
